Experimental findings from patent US12643879B2, “Functionalized heterocyclic compounds as modulators of stimulator of interferon genes (STING)” (RYVU THERAPEUTICS S.A., priority 2019, dated 2026) are described below.

Like-named read-outs stand apart in the source and are kept apart here.

Assay [1] concerns NF-κB pathway in THP-1 dual cells. In words: THP-1 Dual reporter assay, NF-κB pathway (SEAP). Type of assay: cell-based. The settings on record: for EC50: Homo sapiens, THP1-Dual, read-out: THP1 Dual EC50 (μM) NFkB. An outline of the steps: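 Readouts come from THP-1 dual cell supernatant taken 18 h after STING agonist addition. SEAP activity is developed in detection medium for 1–2 h at 37° C and read at 630/655 nm; luciferase is read by luminescence immediately after reagent addition.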
On the technique in general: In a reporter assay the amount or activity of a reporter protein is the signal.

Assay [2] addresses human STING (Homo sapiens, UniProt Q86WV6). In words: Fluorescence Thermal Shift assay (binding to STING). The settings on record: STING 0.1 mg/mL, SyproOrange, 25 to 99° C. The essentials: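 Human STING (0.1 mg/mL final) preincubated 20 min with compounds in 50 mM Hepes, 150 mM NaCl, pH 7.5, then SyproOrange added. Thermal unfolding 25–99 °C at 0.033 °C/s continuous ramp monitored by fluorescence.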

Assay [3] concerns interferon regulatory factor (IRF) pathway in THP-1 dual cells. In words: THP-1 Dual reporter assay, IRF pathway (luciferase). Type of assay: cell-based. The note with it: for EC50: Homo sapiens, THP1-Dual, read-out: THP1 Dual EC50 (μM) IRF. The essentials:
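THP-1 dual reporter cells, 18 h STING agonist stimulation. IRF: medium + luciferase reagent, luminescence read immediately (ISG54/5×ISRE reporter).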

The mark [4] stands for this setting: 18 h stimulation, absorbance at 630 or 655 nm.

Sequence of human STING (Q86WV6 whole entry H232R): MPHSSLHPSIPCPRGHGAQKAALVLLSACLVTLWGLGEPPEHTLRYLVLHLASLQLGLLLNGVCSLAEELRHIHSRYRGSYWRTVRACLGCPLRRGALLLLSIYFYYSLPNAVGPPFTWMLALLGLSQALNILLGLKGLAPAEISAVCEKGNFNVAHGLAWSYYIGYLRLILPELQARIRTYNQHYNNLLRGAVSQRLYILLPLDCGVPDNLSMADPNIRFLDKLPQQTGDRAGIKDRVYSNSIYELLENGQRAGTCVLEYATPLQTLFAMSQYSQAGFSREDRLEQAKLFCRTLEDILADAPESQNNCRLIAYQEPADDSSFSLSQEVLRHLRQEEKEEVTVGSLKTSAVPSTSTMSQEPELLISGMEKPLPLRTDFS

For the molecule `Cc1ccc(N2CCC[C@H](N(Cc3ccnc(C)c3)Cc3cn(C4CC4)c4cc(N5CCC(O)CC5)c(F)cc4c3=O)C2)cn1.Cl` [Example 32, 1-cyclopropyl-6-fluoro-7-(4-hydroxypiperidin-1-yl)-3-({[(3S)-1-(6-methylpyridin-3-yl)piperidin-3-yl][(2-methylpyridin-4-yl)methyl]amino}methyl)-1,4-dihydroquinolin-4-one hydrochloride], the EC50 in assay [1] (setting [4]) was below 1 µM; in assay [3] (18 h stimulation, luminescence), below 1 µM. In assay [2], the “hSTING FTS binding assay (ΔT C. °)” value is “+++ (+++=ΔTm ≥20° C.)”.

As for `CNC1CCN(c2cc3c(cc2F)c(=O)c(CN(Cc2ccnc(C)c2)[C@H]2CCCN(c4ccc(C)nc4)C2)cn3C2CC2)C1` (stereo partly drawn) [Example 33, 1-cyclopropyl-6-fluoro-7-[3-(methylamino)pyrrolidin-1-yl]-3-({[(3S)-1-(6-methylpyridin-3-yl)piperidin-3-yl][(2-methylpyridin-4-yl)methyl]amino}methyl)-1,4-dihydroquinolin-4-one], the EC50 was below 1 µM in assay [1] (setting [4]) and below 1 µM in assay [3] (18 h stimulation, luminescence). Besides, the “hSTING FTS binding assay (ΔT C. °)” value in assay [2] is recorded as “+++ (+++=ΔTm ≥20° C.)”.

Regarding `Cc1cc(CN(Cc2cn(C(C)C)c3ccccc3c2=O)[C@H]2CCCN(c3ccc(N)nc3)C2)ccn1.Cl` [Example 34, 3-({[(3S)-1-(6-aminopyridin-3-yl)piperidin-3-yl][(2-methylpyridinyl-4-yl)methyl]amino}methyl)-1-(propan-2-yl)-1,4-dihydroquinolin-4-one hydrochloride], the 50% effective concentration (EC50) was below 1 µM in assay [1] (setting [4]) and below 1 µM in assay [3] (18 h stimulation, luminescence). In assay [2], the “hSTING FTS binding assay (ΔT C. °)” value is “+++ (+++=ΔTm ≥20° C.)”.

For `Cc1cc(CN(Cc2cn(C3COC3)c3ccccc3c2=O)[C@H]2CCCN(c3ccc(N)nc3)C2)ccn1` [Example 35, 3-({[(3S)-1-(6-aminopyridin-3-yl)piperidin-3-yl][(2-methylpyridin-4-yl)methyl]amino}methyl)-1-(oxetan-3-yl)-1,4-dihydroquinolin-4-one], the EC50 in assay [1] (setting [4]) is below 1 µM; in assay [3] (18 h stimulation, luminescence) it was below 1 µM. In addition, the “hSTING FTS binding assay (ΔT C. °)” value in assay [2] was “+++ (+++=ΔTm ≥20° C.)”.

As for `Cc1ccc(N2CCC[C@H](N(Cc3ccnc(C)c3)Cc3cn(C4CC4)c4nc(N5CC[C@@H](O)C5)c(F)cc4c3=O)C2)cn1.Cl` [Example 37, 1-cyclopropyl-6-fluoro-7-[(3R)-3-hydroxypyrrolidin-1-yl]-3-({[(3S)-1-(6-methylpyridin-3-yl)piperidin-3-yl][(2-methylpyridin-4-yl)methyl]amino}methyl)-1,4-dihydro-1,8-naphthyridin-4-one hydrochloride], the half-maximal effective concentration (EC50) in assay [1] (setting [4]) is below 1 µM; in assay [3] (18 h stimulation, luminescence), below 1 µM. For the same molecule, the “hSTING FTS binding assay (ΔT C. °)” value in assay [2] is on record as “+++ (+++=ΔTm ≥20° C.)”.

Consider `Cc1cc(CN(Cc2cn(C)c3cc(N4CCC(C(=O)O)CC4)ccc3c2=O)[C@H]2CCCN(c3cccnc3)C2)ccn1` [Example 46, 1-[1-methyl-3-({[(2-methylpyridin-4-yl)methyl][(3S)-1-(pyridin-3-yl)piperidin-3-yl]amino}methyl)-4-oxo-1,4-dihydroquinolin-7-yl]piperidine-4-carboxylic acid], for which the EC50 in assay [1] (18 h) and in assay [3] (18 h) was above 10 µM in each case. In assay [2], the “hSTING FTS binding assay (ΔT C. °)” value was “++ (++=10<ΔTm <20° C.)”.

With `Cc1ccc(N2CCC[C@H](N(Cc3ccnc(C)c3)Cc3cn(C4CC4)c4cc(OCCO)c(F)cc4c3=O)C2)cn1` [Example 47, 1-Cyclopropyl-6-fluoro-7-(2-hydroxyethoxy)-3-({[(3S)-1-(6-methylpyridin-3-yl)piperidin-3-yl][(2-methylpyridin-4-yl)methyl]amino}methyl)-1,4-dihydroquinolin-4-one], the “THP1 Dual EC50 (μM) NFkB” value in assay [1] (setting [4]) was “+ + +”. For the same molecule, in assay [2], the “hSTING FTS binding assay (ΔT C. °)” value is reported as “+++ (+++=ΔTm ≥20° C.)”. In addition, the “THP1 Dual EC50 (μM) IRF” value in assay [3] (18 h stimulation, luminescence) is recorded as “+ + +”.

In the case of `Cc1cc(CN(Cc2cn(C(C)C)c3cc(N4CC[C@@H](O)C4)ccc3c2=O)[C@H]2CCCN(c3ccnnc3)C2)ccn1` [Example 49, 7-[(3R)-3-hydroxypyrrolidin-1-yl]-3-({[(2-methylpyridin-4-yl)methyl][(3S)-1-(pyridazin-4-yl)piperidin-3-yl]amino}methyl)-1-(propan-2-yl)-1,4-dihydroquinolin-4-one], the EC50 in assay [1] (setting [4]) is above 10 µM; in assay [3] (18 h stimulation, luminescence) it was above 10 µM. Besides, the “hSTING FTS binding assay (ΔT C. °)” value in assay [2] is reported as “+ (+=ΔTm ≤10° C.)”.

With `CN[C@@H]1CCN(c2cc3c(cc2F)c(=O)c(CN(Cc2ccnc(C)c2)[C@H]2CCCN(c4ccc(C)nc4)C2)cn3C2CC2)C1.Cl` [Example 55, 1-Cyclopropyl-6-fluoro-7-[(3R)-3-(methylamino)pyrrolidin-1-yl]-3-({[(3S)-1-(6-methylpyridin-3-yl)piperidin-3-yl][(2-methylpyridin-4-yl)methyl]amino}methyl)-1,4-dihydroquinolin-4-one hydrochloride], the EC50 was below 1 µM in assay [1] (setting [4]) and below 1 µM in assay [3] (18 h stimulation, luminescence). Also, the “hSTING FTS binding assay (ΔT C. °)” value in assay [2] is recorded as “+++ (+++=ΔTm ≥20° C.)”.

Consider `CN[C@H]1CCN(c2cc3c(cc2F)c(=O)c(CN(Cc2ccnc(C)c2)[C@H]2CCCN(c4ccc(C)nc4)C2)cn3C2CC2)C1.Cl` [Example 58, 1-cyclopropyl-6-fluoro-7-[(3S)-3-(methylamino)pyrrolidin-1-yl]-3-({[(3S)-1-(6-methylpyridin-3-yl)piperidin-3-yl][(2-methylpyridin-4-yl)methyl]amino}methyl)-1,4-dihydroquinolin-4-one hydrochloride], for which the EC50 in assay [1] (setting [4]) was below 1 µM; in assay [3] (18 h stimulation, luminescence) it was below 1 µM. Further, the “hSTING FTS binding assay (ΔT C. °)” value in assay [2] was “+++ (+++=ΔTm ≥20° C.)”.

In the case of `Cc1ccc(N2CCC[C@H](N(Cc3ccnc(C)c3)Cc3cn(C4CC4)c4cc(N5CCCC(C(=O)O)C5)c(F)cc4c3=O)C2)cn1` (stereo partly drawn) [Example 66, 1-[1-cyclopropyl-6-fluoro-3-({[(3S)-1-(6-methylpyridin-3-yl)piperidin-3-yl][(2-methylpyridin-4-yl)methyl]amino}methyl)-4-oxo-1,4-dihydroquinolin-7-yl]piperidine-3-carboxylic acid], the concentration giving a half-maximal response (EC50) in assay [1] (setting [4]) was in the range of 1 to 10 µM; in assay [3] (18 h stimulation, luminescence) it was 1 to 10 µM. The “hSTING FTS binding assay (ΔT C. °)” value in assay [2] is listed as “+++ (+++=ΔTm ≥20° C.)”.

In the case of `Cc1ccc(N2CCC[C@H](N(Cc3ccnc(C)c3)Cc3cn(C4CC4)c4cc(N5CCC(C(=O)O)CC5)c(F)cc4c3=O)C2)cn1` [Example 67, 1-[1-cyclopropyl-6-fluoro-3-({[(3S)-1-(6-methylpyridin-3-yl)piperidin-3-yl][(2-methylpyridin-4-yl)methyl]amino}methyl)-4-oxo-1,4-dihydroquinolin-7-yl]piperidine-4-carboxylic acid], the EC50 in assay [1] (setting [4]) fell in the range of 1 to 10 µM; in assay [3] (18 h stimulation, luminescence), 1 to 10 µM. Besides, in assay [2], the “hSTING FTS binding assay (ΔT C. °)” value is “+++ (+++=ΔTm ≥20° C.)”.

As to `Cc1ccc(N2CCC[C@H](N(Cc3ccnc(C)c3)Cc3cn(C4CC4)c4cc(N5CCC6NCCC6C5)c(F)cc4c3=O)C2)cn1` (stereo partly drawn) [Example 68, 1-cyclopropyl-6-fluoro-3-({[(3S)-1-(6-methylpyridin-3-yl)piperidin-3-yl][(2-methylpyridin-4-yl)methyl]amino}methyl)-7-{octahydro-1H-pyrrolo[3,2-c]pyridin-5-yl}-1,4-dihydroquinolin-4-one], the concentration giving a half-maximal response (EC50) is below 1 µM in assay [1] (setting [4]) and below 1 µM in assay [3] (18 h stimulation, luminescence). The “hSTING FTS binding assay (ΔT C. °)” value in assay [2] was “+++ (+++=ΔTm ≥20° C.)”.

In general, EC50 refers to the concentration needed to bring the measured effect to its halfway point.
